Test results taken from US20240199597A1, “SMALL MOLECULES FOR THE TREATMENT OF KINASE-RELATED DISEASES” (Athos Therapeutics, Inc., priority 2021, published 2024).

Columns and labels:
FLT3 = molecular target: T1, FLT3 (Homo sapiens, UniProt P36888); test: Kinase assay (Eurofins DiscoverX KinaseProfiler / KdElect), FLT3; assay type: binding; details: read-out: FLT3 (Kd50 nM)
T1 construct: purchased Eurofins DiscoverX (contract service)
T1 sequence (P36888 27-993): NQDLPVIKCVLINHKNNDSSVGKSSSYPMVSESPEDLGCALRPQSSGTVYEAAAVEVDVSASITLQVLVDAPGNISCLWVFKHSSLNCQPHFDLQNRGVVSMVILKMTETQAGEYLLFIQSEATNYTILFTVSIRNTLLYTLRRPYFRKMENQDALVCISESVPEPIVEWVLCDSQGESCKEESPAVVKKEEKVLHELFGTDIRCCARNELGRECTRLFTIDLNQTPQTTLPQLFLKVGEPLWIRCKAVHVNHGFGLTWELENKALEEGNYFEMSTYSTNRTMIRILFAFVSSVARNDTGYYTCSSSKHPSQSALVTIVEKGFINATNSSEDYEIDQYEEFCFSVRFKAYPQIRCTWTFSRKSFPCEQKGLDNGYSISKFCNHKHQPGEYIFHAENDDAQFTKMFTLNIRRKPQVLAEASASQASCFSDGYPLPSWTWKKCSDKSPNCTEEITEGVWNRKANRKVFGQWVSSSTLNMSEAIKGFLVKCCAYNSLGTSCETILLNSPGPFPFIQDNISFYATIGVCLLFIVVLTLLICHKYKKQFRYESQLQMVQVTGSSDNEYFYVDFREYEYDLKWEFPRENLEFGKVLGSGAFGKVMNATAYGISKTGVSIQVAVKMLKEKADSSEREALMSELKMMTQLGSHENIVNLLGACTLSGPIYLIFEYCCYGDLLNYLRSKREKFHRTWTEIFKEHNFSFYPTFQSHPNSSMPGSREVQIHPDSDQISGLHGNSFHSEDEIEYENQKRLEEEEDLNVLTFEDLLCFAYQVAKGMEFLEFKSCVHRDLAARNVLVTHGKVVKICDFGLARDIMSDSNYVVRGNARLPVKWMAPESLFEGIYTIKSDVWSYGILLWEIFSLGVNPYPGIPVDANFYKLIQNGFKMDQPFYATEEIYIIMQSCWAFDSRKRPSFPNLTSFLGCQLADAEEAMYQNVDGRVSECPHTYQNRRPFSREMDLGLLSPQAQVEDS
Experimental: Stock solutions of the compounds being evaluated were prepared. The IC50 values were determined by the Eurofins DiscoverX services using either the KinaseProfiler or the KdElect kinase activity detection assays.

HCT-116 = test: Cancer cytotoxicity assay (Real-Time-Glo cell viability), HCT-116; assay type: cell-based; details: Homo sapiens, colorectal cancer cell line, 72 hr
Experimental: (§1) The cytotoxicity of Compounds 1, 3, 4, 6, 7, 8, 9, 10, 12 and 13 against cancer cell lines was determined. To determine the optimal plating density for cell viability assays, for each cell line, cells were counted and diluted to final densities of 2.5, 5, 10 and 20 thousand per 100 μL of their respective growth media per well in 96 well plates. The Promega Real-Time-Glo cell viability kit was used to determine the optimal concentration for cell plating so that each cell line would be within the linear part of its growth curve after 72 hrs in culture. For the determination of test compound IC50s, different cancer cell lines were plated in 96 well plates in the pre-determined optimal density for each cell line. Test compounds were then added at different concentrations for the creation of six-point curve and cell density was determined using the Promega Real-Time-Glo cell viability kit after 24, 48, and 72 hrs in culture.

CLK4 = molecular target: T2, CLK4 (Homo sapiens, UniProt Q9HAZ1); test: Kinase inhibition assay (Eurofins DiscoverX KinaseProfiler / KdElect), CLK4; assay type: biochemical
T2 construct: purchased Eurofins DiscoverX (contract service)
T2 sequence (Q9HAZ1 whole entry): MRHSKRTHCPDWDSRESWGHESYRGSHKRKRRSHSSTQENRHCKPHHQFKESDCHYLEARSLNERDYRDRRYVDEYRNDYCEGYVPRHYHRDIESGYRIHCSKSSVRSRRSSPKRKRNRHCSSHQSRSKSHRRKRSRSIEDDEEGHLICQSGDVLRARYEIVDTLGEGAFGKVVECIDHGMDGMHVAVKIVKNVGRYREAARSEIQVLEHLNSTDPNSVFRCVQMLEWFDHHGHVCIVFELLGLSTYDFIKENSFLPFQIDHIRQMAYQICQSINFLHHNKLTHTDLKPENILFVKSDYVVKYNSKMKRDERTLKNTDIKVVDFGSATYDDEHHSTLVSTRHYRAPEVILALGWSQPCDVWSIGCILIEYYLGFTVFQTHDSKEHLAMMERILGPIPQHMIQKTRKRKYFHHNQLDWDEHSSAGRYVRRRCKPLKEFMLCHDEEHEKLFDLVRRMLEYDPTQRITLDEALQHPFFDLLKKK
Experimental: (§2) The activity of Compounds 1, 3, 4, 6, 7, 8, 9, 10 and 13 in inhibiting CLK1, CLK4, PLK4, and FLT3 kinases was determined. Stock solutions of the compounds being evaluated were prepared. The IC50 values were determined by the Eurofins DiscoverX services using either the KinaseProfiler or the KdElect kinase activity detection assays.

SKOV-3 = test: Cancer cytotoxicity assay (Real-Time-Glo cell viability), SKOV-3; assay type: cell-based; details: Homo sapiens, SK-OV-3; ovarian cancer cell line, 72 hr
Experimental: as §1

Kasumi-3 = test: Cancer cytotoxicity assay (Real-Time-Glo cell viability), Kasumi-3; assay type: cell-based; details: leukemia cell, 72 hr
Experimental: as §1

PLK4 = molecular target: T3, PLK4 (Homo sapiens, UniProt O00444); test: Kinase inhibition assay (Eurofins DiscoverX KinaseProfiler / KdElect), PLK4; assay type: biochemical
T3 construct: purchased Eurofins DiscoverX (contract service)
T3 sequence (O00444 1-970): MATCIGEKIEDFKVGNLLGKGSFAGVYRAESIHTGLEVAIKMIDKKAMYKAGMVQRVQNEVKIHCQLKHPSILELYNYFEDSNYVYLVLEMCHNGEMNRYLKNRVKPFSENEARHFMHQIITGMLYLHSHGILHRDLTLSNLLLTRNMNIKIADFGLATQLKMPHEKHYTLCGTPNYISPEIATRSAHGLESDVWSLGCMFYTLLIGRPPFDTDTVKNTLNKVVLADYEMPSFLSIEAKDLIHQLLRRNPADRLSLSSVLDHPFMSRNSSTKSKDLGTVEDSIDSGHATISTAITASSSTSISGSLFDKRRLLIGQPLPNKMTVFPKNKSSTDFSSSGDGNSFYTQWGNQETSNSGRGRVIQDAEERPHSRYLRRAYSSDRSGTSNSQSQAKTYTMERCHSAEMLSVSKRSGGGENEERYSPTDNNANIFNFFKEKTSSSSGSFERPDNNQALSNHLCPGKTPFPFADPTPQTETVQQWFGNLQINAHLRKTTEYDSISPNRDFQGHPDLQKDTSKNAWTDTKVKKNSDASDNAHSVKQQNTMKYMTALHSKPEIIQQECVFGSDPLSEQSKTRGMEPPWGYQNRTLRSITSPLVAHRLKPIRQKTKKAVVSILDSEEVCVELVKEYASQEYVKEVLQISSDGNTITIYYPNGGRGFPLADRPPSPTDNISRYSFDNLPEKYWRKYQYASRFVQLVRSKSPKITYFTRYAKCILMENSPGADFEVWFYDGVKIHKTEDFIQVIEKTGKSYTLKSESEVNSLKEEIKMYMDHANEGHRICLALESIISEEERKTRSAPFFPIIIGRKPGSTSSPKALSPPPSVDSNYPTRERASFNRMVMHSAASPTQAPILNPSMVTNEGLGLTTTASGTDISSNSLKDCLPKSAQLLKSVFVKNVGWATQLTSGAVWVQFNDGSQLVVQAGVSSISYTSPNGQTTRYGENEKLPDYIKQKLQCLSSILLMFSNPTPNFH
Experimental: as §2

HT-29 = test: Cancer cytotoxicity assay (Real-Time-Glo cell viability), HT-29; assay type: cell-based; details: Homo sapiens, colorectal cancer cell line, 72 hr
Experimental: as §1

A-498 = test: Cancer cytotoxicity assay (Real-Time-Glo cell viability), A-498; assay type: cell-based; details: Homo sapiens, A498; kidney cancer, 72 hr
Experimental: as §1

OV-90 = test: Cancer cytotoxicity assay (Real-Time-Glo cell viability), OV-90; assay type: cell-based; details: Homo sapiens, ovarian cancer cell line, 72 hr
Experimental: as §1

CLK1 = molecular target: T4, CLK1 (Homo sapiens, UniProt P49759); test: Kinase inhibition assay (Eurofins DiscoverX KinaseProfiler / KdElect), CLK1; assay type: biochemical
T4 construct: purchased Eurofins DiscoverX (contract service)
T4 sequence (P49759 whole entry): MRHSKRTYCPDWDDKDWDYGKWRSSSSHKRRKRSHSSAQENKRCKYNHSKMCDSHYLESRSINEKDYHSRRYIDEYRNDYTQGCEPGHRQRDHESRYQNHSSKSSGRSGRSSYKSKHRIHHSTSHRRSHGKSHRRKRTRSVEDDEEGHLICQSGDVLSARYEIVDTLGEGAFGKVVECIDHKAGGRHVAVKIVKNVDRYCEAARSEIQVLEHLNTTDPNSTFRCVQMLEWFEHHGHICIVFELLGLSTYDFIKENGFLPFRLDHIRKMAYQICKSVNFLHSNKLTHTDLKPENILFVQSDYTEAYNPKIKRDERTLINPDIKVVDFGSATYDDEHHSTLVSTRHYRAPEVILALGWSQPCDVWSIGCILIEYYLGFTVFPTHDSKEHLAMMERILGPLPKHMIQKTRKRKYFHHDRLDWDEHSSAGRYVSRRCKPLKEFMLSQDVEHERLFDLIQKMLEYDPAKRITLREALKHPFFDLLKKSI
Experimental: as §2

MV4-11 = test: Cancer cytotoxicity assay (Real-Time-Glo cell viability), MV4-11; assay type: cell-based; details: Homo sapiens, leukemia cell, 72 hr
Experimental: as §1

786-O = test: Cancer cytotoxicity assay (Real-Time-Glo cell viability), 786-O; assay type: cell-based; details: Homo sapiens, 786-0; kidney cancer, 72 hr
Experimental: as §1

Kasumi-1 = test: Cancer cytotoxicity assay (Real-Time-Glo cell viability), Kasumi-1; assay type: cell-based; details: Homo sapiens, leukemia cell, 72 hr
Experimental: as §1

Row | Structure (SMILES) | Kd (FLT3) [µM] | IC50 (HCT-116) [nM] | IC50 (CLK4) [nM] | IC50 (SKOV-3) [nM] | IC50 (Kasumi-3) [nM] | IC50 (PLK4) [nM] | IC50 (HT-29) [nM] | IC50 (A-498) [nM] | IC50 (OV-90) [nM] | IC50 (CLK1) [nM] | IC50 (MV4-11) [nM] | IC50 (786-O) [nM] | IC50 (Kasumi-1) [nM] | kinase selectivity (CLK1; among CLK1, CLK4, PLK4, FLT3)
1 | COc1cc2c(Nc3cc(C)[nH]n3)nc(N3CCC3)nc2cc1OCCCN1CCCC1 [Compound 4, 2-(Azetidin-1-yl)-6-methoxy-N-(5-methyl-1H-pyrazol-3-yl)-7-(3-(pyrrolidin-1-yl)propoxy)quinazolin-4-amine] | 5 to 10 | 1000 to 5000 | 5000 to 10000 | > 10000 | > 10000 | > 10000 | > 10000 | > 10000 | > 10000 | 1000 to 5000 | 5000 to 10000 | > 10000 | > 10000 | 
2 | COc1cc2c(Nc3cc(C4CCC4)[nH]n3)nc(N3CCC(F)(F)CC3)nc2cc1OCCCN1CCCC1 [Compound 10, N-(5-cyclobutyl-1H-pyrazol-3-yl)-2-(4,4-difluoropiperidin-1-yl)-6-methoxy-7-(3-(pyrrolidin-1-yl)propoxy)quinazolin-4-amine] |  | 1000 to 5000 | < 1000 | 1000 to 5000 | < 1000 | 1000 to 5000 | 1000 to 5000 | 1000 to 5000 | 1000 to 5000 | < 1000 | < 1000 | 1000 to 5000 | < 1000 | 
3 | COc1cc2c(Nc3cc(C(C)C)[nH]n3)nc(N3CCC(F)(F)CC3)nc2cc1OCCCN1CCCC1 [Compound 13, 2-(4,4-difluoropiperidin-1-yl)-N-(5-isopropyl-1H-pyrazol-3-yl)-6-methoxy-7-(3-(pyrrolidin-1-yl)propoxy)quinazolin-4-amine] | 1 to 5 | 1000 to 5000 | < 1000 | 1000 to 5000 | 1000 to 5000 | > 10000 | 1000 to 5000 | 1000 to 5000 | 1000 to 5000 | < 1000 | < 1000 | 1000 to 5000 | 1000 to 5000 | 
4 | COc1cc2c(Nc3nnc(C)s3)nc(N3CCC(F)(F)CC3)nc2cc1OCCCN1CCCC1 [Compound 12, N-(2-(4,4-difluoropiperidin-1-yl)-6-methoxy-7-(3-(pyrrolidin-1-yl)propoxy)quinazolin-4-yl)-5-methyl-1,3,4-thiadiazol-2-amine] |  | 1000 to 5000 |  | 1000 to 5000 | 1000 to 5000 |  | 1000 to 5000 | 1000 to 5000 | 1000 to 5000 |  | 1000 to 5000 | 5000 to 10000 | 1000 to 5000 | 
5 | COc1cc2c(Nc3cc(C)[nH]n3)nc(N3CCCC3)nc2cc1OCCCN1CCCC1 [Compound 1, 6-Methoxy-N-(5-methyl-1H-pyrazol-3-yl)-2-(pyrrolidin-1-yl)-7-(3-(pyrrolidin-1-yl)propoxy)quinazolin-4-amine] | > 10 | 1000 to 5000 | 5000 to 10000 | 1000 to 5000 | 5000 to 10000 | > 10000 | 5000 to 10000 | 1000 to 5000 | 1000 to 5000 | < 1000 | < 1000 | 5000 to 10000 | 1000 to 5000 | selective CLK1/4 inhibitor
6 | COc1cc2c(Nc3cc(C4CC4)[nH]n3)nc(N3CCC(F)(F)CC3)nc2cc1OCCCN1CCCC1 [Compound 6, N-(5-cyclopropyl-1H-pyrazol-3-yl)-2-(4,4-difluoropiperidin-1-yl)-6-methoxy-7-(3-(pyrrolidin-1-yl)propoxy)quinazolin-4-amine] |  | 1000 to 5000 | < 1000 | 1000 to 5000 | 1000 to 5000 | < 1000 | 1000 to 5000 | 1000 to 5000 | 1000 to 5000 | < 1000 | < 1000 | 1000 to 5000 | 1000 to 5000 | 
7 | COc1cc2c(Nc3cc(C)[nH]n3)nc(N3CCC(F)(F)CC3)nc2cc1OCCCN1CCCC1 [Compound 3, 2-(4,4-difluoropiperidin-1-yl)-6-methoxy-N-(5-methyl-1H-pyrazol-3-yl)-7-(3-(pyrrolidin-1-yl)propoxy)quinazolin-4-amine] | 1 to 5 | 1000 to 5000 | < 1000 | 1000 to 5000 | 5000 to 10000 | < 1000 | 5000 to 10000 | 5000 to 10000 | 1000 to 5000 | < 1000 | 1000 to 5000 | 5000 to 10000 | > 10000 | 
8 | COc1cc2c(Nc3ncc(C)s3)nc(N3CCC(F)(F)CC3)nc2cc1OCCCN1CCCC1 [Compound 9, N-(2-(4,4-difluoropiperidin-1-yl)-6-methoxy-7-(3-(pyrrolidin-1-yl)propoxy)quinazolin-4-yl)-5-methylthiazol-2-amine] | > 10 | 5000 to 10000 | < 1000 | 1000 to 5000 | 1000 to 5000 | > 10000 | > 10000 | 1000 to 5000 | 5000 to 10000 | < 1000 | 1000 to 5000 | 1000 to 5000 | 1000 to 5000 | 
9 | COc1cc2c(Nc3cc(C(C)(C)C)[nH]n3)nc(N3CCC(F)(F)CC3)nc2cc1OCCCN1CCCC1 [Compound 7, N-(5-(tert-butyl)-1H-pyrazol-3-yl)-2-(4,4-difluoropiperidin-1-yl)-6-methoxy-7-(3-(pyrrolidin-1-yl)propoxy)quinazolin-4-amine] | > 10 | 1000 to 5000 | < 1000 | 1000 to 5000 | 1000 to 5000 | > 10000 | 1000 to 5000 | 1000 to 5000 | 1000 to 5000 | < 1000 | 1000 to 5000 | 1000 to 5000 | 1000 to 5000 | 
